According to paper PMC8006935, “Study of Combinatorial Drug Synergy of Novel Acridone Derivatives With Temozolomide Using in-silico and in-vitro Methods in the Treatment of Drug-Resistant Glioma” (Frontiers in Oncology, 2021):

How the values were obtained:
[1] = Sulforhodamine B assay, Vero control cells; assay type: cell-based; settings: African green monkey, Vero cells (normal kidney epithelial cells), SRB, read-out: Vero cell Line CC50
Procedure: In order to test the growth inhibition potential of the TMZ and Acridone derivatives on Glioma, the U-87 (Uppsala 87) Glioma cell lines and T-98 (Temozolomide resistant) Glioma cell lines were treated with Temozolomide (TMZ) and Acridone derivatives AC2, AC7, and AC26. The African Green Monkey Kidney Vero cell lines were used as control for the study. The Vero cell lines were obtained from the National Center for Cell Sciences (NCCS), Pune, while the U-87 and T-98 cell lines were carried in the lab of Dr. GJ Peters, Cancer Center Amsterdam (CCA), VU University Medical Center, Amsterdam, Netherlands. The Mycoplasma testing was done by using the Universal Mycoplasma Detection Kit (ATCC® 30-1012K™) every 6 months. The Vero cell lines have been used as control as they are normal kidney epithelial cells and are non-cancerous in nature. The Vero cell lines have been routinely used for testing cytotoxicity of small molecules by various researchers ([22], [23]). Also, in our previous study, Vero cell lines have been used for testing safety and efficacy of Acridone derivatives for Lung, Cervical, and Breast Cancer studies ([13]).
Cell viability was found using the Sulforhodamine B (SRB) assay to measure the cellular protein content which provides better sensitivity in comparison to MTT assay ([24]). Moreover, as this method is dependent on the property of the SRB dye, it acts by binding to proteins under slightly acidic conditions and can be exposed to basic conditions for its extraction. The resulting amount of bound dye is then utilized as a proxy for cell mass ([25]). This cell mass can then be extrapolated to measure cell growth.
Glioma cells were cultured in Gibco (RPMI 1640) complemented with 10% fetal calf serum (Gibco). The cultures were then treated with trypsin-EDTA in order to detach/separate the cells from their culture flasks. The quickly proliferating cells were harvested, counted and plated at suitable concentrations in 96-well microplates. These microplates were subsequently incubated for 24 h. After incubation, drug compounds were dissolved in the culture media and placed in 96 well plates in triplicates, which were again incubated at 37°C under 5% CO2 for 72 h. 72 h later, the plates were removed and the cells were treated with cold Trichloroacetic acid (TCA) to fix the cultures and. […] Thereafter, absorbance of the solution was measured at 540 nm utilizing a microplate reader. Absorbance readings (triplicate values) recorded were used to calculate percentage growth inhibition due to the effect of drugs using the following equations.
% Cell growth = Absorbance sample/Absorbance of control or untreated × 100 […]
The IC50 was calculated based on the log graph sheet which was developed in-house at the CCA, VU University Medical Center. […]

[2] = tested on: Drug resistant cancer cells (CR), T-98; test: Mathematical tumor growth model simulation and Bliss synergy, drug resistant cancer cells
[3] = pKa by UV-Vis spectrophotometer; assay type: physicochemical
Procedure: Characterization of acridone derivatives AC2, AC7, and AC26 were carried out by using all the chemicals of analytical grade. Hydrochloric acid and sodium hydroxide were procured from Sisco Research Lab Pvt. Ltd (Mumbai, India). Potassium dihydrogen orthophosphate, methanol and ortho-phosphoric acid (85% pure) was received from Loba Chemie Pvt. Ltd. (Mumbai, India). Sodium chloride was received from SD Fine-Chem Limited (Mumbai, India). Milli-pore water was used throughout the study. Chemical information like the molecular weight of compounds was determined by obtaining ESI-MS spectroscopy using methanol as solvent. pH calculated by using pH analyzer (Lab India) and PKa determined by using UV-Vis spectrophotometer (Shimadzu, Japan). Melting point was calculated by Digital Melting point apparatus (Veego India). Lipophilicity was determined by using software like Chem Draw 15 and ALGOPS 2.1 ([16]). In order to determine the Blood Brain Barrier (BBB) permeability of the compounds, we have used Online BBB Predictor (https://www.cbligand.org/BBB/predictor.php) using SVM Machine Learning algorithm and PubChem as the fingerprint ([17]).

[4] = Acute Oral Toxicity - Fixed Dose procedure; assay type: in vivo; settings: for clinical sign of toxicity: oral, single dose, 14 days observation, female albino Wistar rats
Procedure: Animal study was conducted for acridone derivatives AC2, AC7, and AC26 alone and in combination with Temozolomide for Acute Oral Toxicity - Fixed Dose procedure. The Institutional Animal Ethics Committee bearing CPCSEA/IAEC/P-52/2016 was approved for undertaking the study. Acute oral toxicity was conducted on female albino Wistar rats for 8–12 weeks and were maintained at 25 ± 2 °C in a conditioned room with 50–60% of humidity and free access to food and water was given. Rats were kept for fasting overnight (12 h) before dosing and weights were recorded periodically. Rats in two groups were given acridone derivatives alone at a dose of […], rats in two groups were given a combination of Temozolomide : acridone derivatives at dose of 10:1 mg/kg and 15:1.5 mg/kg body weight and one group was kept as control. Dose of Temozolomide was taken as per previously published article ([50]). Compounds alone and combination were suspended in 2.0% of Tween 80 in normal saline and control group was taken for vehicle only. After administering the compound, food was not provided for 3 h. All the rats were monitored periodically for 1 h upto 12 h on the 1st day and thereafter twice in a day for mortality, behavioral changes, signs and symptoms of toxicity for 14 days. Individual weights of rats were taken for all the 14 days and study was conducted twice for each dose.

[5] = design: method as in PMID 21565270; settings: cited from earlier work
[6] = earlier studies, no reference given; cited from earlier work

| SMILES | CC50 at 72 h [1] | pKa [3] | Body weight (g) Day 0 ([4]; 300 mg/kg oral) | Body weight (g) Day 1 ([4]; 300 mg/kg oral) | Body weight (g) Day 2 ([4]; 300 mg/kg oral) | Body weight (g) Day 3 ([4]; 300 mg/kg oral) | Body weight (g) Day 4 ([4]; 300 mg/kg oral) | Body weight (g) Day 5 ([4]; 300 mg/kg oral) | Body weight (g) Day 6 ([4]; 300 mg/kg oral) | Body weight (g) Day 7 ([4]; 300 mg/kg oral) | Body weight (g) Day 8 ([4]; 300 mg/kg oral) | Body weight (g) Day 9 ([4]; 300 mg/kg oral) | Body weight (g) Day 10 ([4]; 300 mg/kg oral) | Body weight (g) Day 11 ([4]; 300 mg/kg oral) | Body weight (g) Day 12 ([4]; 300 mg/kg oral) | Body weight (g) Day 13 ([4]; 300 mg/kg oral) | Body weight (g) Day 14 ([4]; 300 mg/kg oral) | Body weight (g) Day 0 ([4]; 2000 mg/kg oral) | Body weight (g) Day 1 ([4]; 2000 mg/kg oral) | Body weight (g) Day 2 ([4]; 2000 mg/kg oral) | other results |
| --- | --- | --- | --- | --- | --- | --- | --- | --- | --- | --- | --- | --- | --- | --- | --- | --- | --- | --- | --- | --- | --- |
| O=C(NN=CC=Cc1ccccc1)c1cccc2c(=O)c3ccccc3[nH]c12 [AC2, 9-oxo-N'-(3-phenylallylidene)-9,10-dihydroacridine-4-carbohydrazide] | 56.2 µM | 8.03 | 185 ± 6 g | 186 ± 12 g | 189 ± 10 g | 191 ± 15 g | 192 ± 12 g | 193 ± 22 g | 195 ± 12 g | 196 ± 10 g | 194 ± 12 g | 195 ± 10 g | 198 ± 15 g | 199 ± 16 g | 201 ± 10 g | 203 ± 6 g | 205 ± 18 g | 173 ± 8 g | 175 ± 11 g | 176 ± 8 g | % fold change [(final-initial)/initial]*100 ([2]; combination TMZ + AC2): 3.26%; Fold change = final IC50/initial IC50 ([2]; combination TMZ + AC2): 0.96; Body weight (g) Day 3 ([4]; 2000 mg/kg oral): 178 ± 12 g; Body weight (g) Day 4 ([4]; 2000 mg/kg oral): 180 ± 14 g; Body weight (g) Day 5 ([4]; 2000 mg/kg oral): 183 ± 15 g; Body weight (g) Day 6 ([4]; 2000 mg/kg oral): 185 ± 12 g; Body weight (g) Day 7 ([4]; 2000 mg/kg oral): 188 ± 16 g; Body weight (g) Day 8 ([4]; 2000 mg/kg oral): 190 ± 12 g; Body weight (g) Day 9 ([4]; 2000 mg/kg oral): 192 ± 16 g; Body weight (g) Day 10 ([4]; 2000 mg/kg oral): 195 ± 12 g; Body weight (g) Day 11 ([4]; 2000 mg/kg oral): 197 ± 8 g; Body weight (g) Day 12 ([4]; 2000 mg/kg oral): 199 ± 12 g; Body weight (g) Day 13 ([4]; 2000 mg/kg oral): 202 ± 15 g; Body weight (g) Day 14 ([4]; 2000 mg/kg oral): 206 ± 7 g; clinical sign of toxicity [4]: No clinical sign of toxicity was observed; cytotoxicity in comparison to the other acridone derivatives [5]: 100 times; cardiotoxicity, nephrotoxicity and necrosis [6]: no cardiotoxicity, nephrotoxicity and necrosis; liver histopathology [6]: minimal hyperchromatic, anaplasia, and cellular infiltration |
| O=C(NN=Cc1ccccc1Cl)c1cccc2c(=O)c3ccccc3[nH]c12 [AC7, N'-(2-chlorobenzylidene)-9-oxo-9,10-dihydroacridine-4-carbohydrazide] | 48.2 µM | 9.23 | 175 ± 10 g | 176 ± 14 g | 178 ± 10 g | 181 ± 8 g | 183 ± 12 g | 185 ± 15 g | 188 ± 11 g | 192 ± 12 g | 194 ± 12 g | 196 ± 14 g | 195 ± 11 g | 197 ± 16 g | 199 ± 12 g | 202 ± 10 g | 205 ± 18 g | 180 ± 8 g | 181 ± 12 g | 183 ± 8 g | % fold change [(final-initial)/initial]*100 ([2]; combination TMZ + AC7): 8.5%; Fold change = final IC50/initial IC50 ([2]; combination TMZ + AC7): 0.91; Body weight (g) Day 3 ([4]; 2000 mg/kg oral): 185 ± 14 g; Body weight (g) Day 4 ([4]; 2000 mg/kg oral): 187 ± 6 g; Body weight (g) Day 5 ([4]; 2000 mg/kg oral): 189 ± 11 g; Body weight (g) Day 6 ([4]; 2000 mg/kg oral): 192 ± 16 g; Body weight (g) Day 7 ([4]; 2000 mg/kg oral): 193 ± 15 g; Body weight (g) Day 8 ([4]; 2000 mg/kg oral): 197 ± 10 g; Body weight (g) Day 9 ([4]; 2000 mg/kg oral): 198 ± 18 g; Body weight (g) Day 10 ([4]; 2000 mg/kg oral): 201 ± 8 g; Body weight (g) Day 11 ([4]; 2000 mg/kg oral): 204 ± 10 g; Body weight (g) Day 12 ([4]; 2000 mg/kg oral): 206 ± 14 g; Body weight (g) Day 13 ([4]; 2000 mg/kg oral): 208 ± 12 g; Body weight (g) Day 14 ([4]; 2000 mg/kg oral): 211 ± 16 g; clinical sign of toxicity [4]: No clinical sign of toxicity was observed; cytotoxicity in comparison to the other acridone derivatives [5]: 100 times; cardiotoxicity, nephrotoxicity and necrosis [6]: no cardiotoxicity, nephrotoxicity and necrosis; liver histopathology [6]: minimal hyperchromatic, anaplasia, and cellular infiltration |
